In US6630316B1, “Method for measurement of lymphocyte function” (priority 1996, dated 2003):

Experiments:
Type in all cases: cell-based
[1] = test system: T lymphocytes separated by CD4, CD69, or CD3; assay: ATP response after PHA stimulation of T lymphocytes separated by CD4, CD69 or CD3; settings: PHA (1%) for 24, 48, 72 or 96 hours; separation by CD3, CD4 or CD69
[2] = test system: CD4 positive T lymphocytes; assay: ATP (luciferin:luciferase) response of PBMC separated using CD4 antibody and goat anti-mouse paramagnetic beads; settings: PHA 1 ug/ml, 24 hours, CD4 separation, unstimulated 8768
[3] = test system: CD8 positive T lymphocytes
[4] = test system: T lymphocytes (CD4) in whole blood; assay: T cell response to mitogens in a whole blood sample (CD4 separation, ATP luminescence); settings: whole blood diluted 1:5, incubated overnight at 37 C; PHA at 1%, IL-2 at 1000 U/ml; control 458,451

Substance: phytohemagglutinin [PHA]
- relative light units from stimulated cells versus unstimulated cells [1]: greater than those from the unstimulated cells
- Relative Light Units [2]: 38903 Relative Light Units
- stimulation index [3]: > 10
- Relative Light Units [4]: 5,836,682 Relative Light Units
